Values quoted from earlier work in PMC6062831 (ACS Central Science, 2018).
Like-named read-outs stand apart in the source and are kept apart here.

How the values were obtained:
[1] = test system: human GUS ortholog; conditions: cited from earlier work
[2] = test system: Escherichia coli GUS; conditions: cited from earlier work

Compound | inhibition of human GUS ortholog [1] | Ki ([2]; read-out: Ki against Escherichia coli GUS) [µM] | Ki ([2]; read-out: Ki against E. coli GUS) [µM]
O=C(O)[C@@H](O)[C@H]1OC(=O)[C@H](O)[C@H]1O [D-glucaro-1,4-lactone] | potent inhibitors | 19 | 
O=C(O)[C@@H]1[C@@H](O)[C@H](O)[C@@]2(O)CC[C@@H]1N2 [uronic-noeurostegine] | potent inhibitors |  | 0.06
